Test results: patent US20080064691A1, “Heterocyclic Amide Derivatives Which Possess Glycogen Phosphorylase Inhibitory Activity” (AstraZeneca AB, priority 2003, published 2008)

Key:
conscious dogs = details: cited from earlier work
hepatocytes = details: cited from earlier work
db/db and ob/ob mice = db/db and ob/ob mice following treatment; cited from earlier work
[1] = target: T1, Human recombinant liver glycogen phosphorylase a (hrl GPα) (Homo sapiens, UniProt P06737); assay: glycogen phosphorylase inhibition, multienzyme coupled assay (glucose-1-phosphate production from glycogen); format: biochemical; details: hrl GPα 20 nM, 6 hours at 30° C.
T1 sequence (P06737 1-847): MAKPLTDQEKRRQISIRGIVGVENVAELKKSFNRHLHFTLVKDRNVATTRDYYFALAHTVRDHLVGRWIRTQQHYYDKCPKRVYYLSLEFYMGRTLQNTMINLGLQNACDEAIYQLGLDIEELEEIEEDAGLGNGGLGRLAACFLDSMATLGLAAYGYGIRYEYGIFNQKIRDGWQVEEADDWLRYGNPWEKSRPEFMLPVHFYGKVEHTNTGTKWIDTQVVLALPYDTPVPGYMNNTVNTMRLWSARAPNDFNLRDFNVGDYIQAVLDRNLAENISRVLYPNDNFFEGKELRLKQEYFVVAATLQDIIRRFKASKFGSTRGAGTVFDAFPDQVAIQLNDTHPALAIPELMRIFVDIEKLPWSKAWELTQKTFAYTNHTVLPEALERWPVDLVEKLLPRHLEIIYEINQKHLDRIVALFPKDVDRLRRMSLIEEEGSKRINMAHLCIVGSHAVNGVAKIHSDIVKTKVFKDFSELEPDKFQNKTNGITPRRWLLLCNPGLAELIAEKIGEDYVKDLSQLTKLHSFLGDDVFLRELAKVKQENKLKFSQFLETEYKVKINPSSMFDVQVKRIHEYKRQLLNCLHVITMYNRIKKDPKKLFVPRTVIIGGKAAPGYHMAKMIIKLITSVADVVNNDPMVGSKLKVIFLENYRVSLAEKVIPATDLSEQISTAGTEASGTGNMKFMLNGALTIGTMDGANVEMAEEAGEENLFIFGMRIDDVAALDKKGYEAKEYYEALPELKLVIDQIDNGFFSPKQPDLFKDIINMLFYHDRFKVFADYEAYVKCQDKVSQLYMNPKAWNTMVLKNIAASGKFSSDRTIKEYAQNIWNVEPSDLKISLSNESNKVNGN
Protocol: The activity of the compounds is determined by measuring the inhibitory effect of the compounds on glycogen degradation, the production of glucose-1-phosphate from glycogen is monitored by the multienzyme coupled assay, as described in EP 0 846 464 A2, general method of Pesce et al (Pesce, M A, Bodourian, S H, Harris, R C, and Nicholson, J F (1977) Clinical Chemistry 23, […]). The reactions were in 384 well microplate format in a volume of 50 μl. The change in fluorescence due to the conversion of the co-factor NAD to NADH is measured at 340 nm excitation, 465 nm emission in a Tecan Ultra Multifunctional Microplate Reader. The reaction is in 50 mM HEPES, 3.5 mM KH2PO4, 2.5 mM MgCl2, 2.5 mM ethylene glycol-bis(b-aminoethyl ether) N,N,N′,N′-tetraacetic acid, 100 mM KCl, 8 mM D-(+)-glucose pH7.2, containing 0.5 mM dithiothreitol, the assay buffer solution. Human recombinant liver glycogen phosphorylase a (hrl GPα) 20 nM is pre-incubated in assay buffer solution with 6.25 mM NAD, 1.25 mg type III glycogen at 1.25 mg ml^−1 the reagent buffer, for 30 minutes. […] The non-inhibited activity of GPα is measured in the presence of 10 μl 5% DMSO in assay buffer solution and maximum inhibition measured in the presence of 5 mgs ml^−1 N-ethylmaleimide. […] Relative Fluoresence Units (RFUs) are measured at 340 nm excitation, 465 nm emission . […]

Row | Compound | arterial plasma glucose following a glucagon challenge (conscious dogs) | hepatic glucose output following a glucagon challenge (conscious dogs) | glucagon stimulated glycogenolysis (hepatocytes) | glucose output (hepatocytes) | plasma glucose concentration (db/db and ob/ob mice) | IC50 [1] [nM]
1 | CCN1C(C)=C(C(=O)OC(C)C)C(c2ccccc2Cl)C2=C1COC2=O (stereo not drawn) [Bay R3401] | reduced significantly | reduced significantly |  |  |  | 
2 | CN(C)C(=O)[C@H](O)[C@H](Cc1ccccc1)NC(=O)c1cc2cc(Cl)ccc2[nH]1 [CP91149] |  |  | reduce | reduce | reduced, in a dose related manner | 
3 | O=C(N[C@@H](Cc1ccc(F)cc1)C(=O)N1CCC(O)CC1)c1cc2cc(Cl)ccc2[nH]1 [CP320626] |  |  | reduce | reduce | reduced, in a dose related manner | 
4 | O=C(N[C@@H]1Cc2ccccc2[C@H]1CO)c1cc2cc(Cl)sc2[nH]1 [Example 5, 2-Chloro-N-[(1R,2R)-1-(hydroxymethyl)-2,3-dihydro-1H-inden-2-yl]-6H-thieno[2,3-b]pyrrole-5-carboxamide] |  |  |  |  |  | 493
